# pIC50: −log10 of the molar value.
# Molecular target: human full-length MKNK1 (Homo sapiens, UniProt Q9BUB5, T344D)
# Assay: MKNK1 kinase high ATP assay (TR-FRET)
# Type: biochemical
# Conditions: 2 mM ATP, 15 min preincubation with MKNK1, TR-FRET
# Method: MKNK1 Kinase High ATP Assay
# MKNK1-inhibitory activity at high ATP of compounds of the present invention after their preincubation with MKNK1 was quantified employing the TR-FRET-based MKNK1 high ATP assay as described in the following paragraphs.
# A recombinant fusion protein of Glutathione-S-Transferase (GST, N-terminally) and human full-length MKNK1 (amino acids 1-424 and T344D of accession number BAA 19885.1), expressed in insect cells using baculovirus expression system and purified via glutathione sepharose affinity chromatography, was purchased from Carna Biosciences (product no 02-145) and used as enzyme. As substrate for the kinase reaction the biotinylated peptide biotin-Ahx-IKKRKLTRRKSLKG (C-terminus in amide form) was used, which can be purchased e.g. from the company Biosyntan (Berlin-Buch, Germany).
# For the assay 50 nl nL of a 100fold concentrated solution of the test compound in DMSO was pipetted into a black low volume 384well microtiter plate (Greiner Bio-One, Frickenhausen, Germany), 2 μL of a solution of MKNK1 in aqueous assay buffer [50 mM HEPES pH 7.5, 5 mM magnesium chloride, 1.0 mM dithiothreitol, 0.005% (v/v) Nonidet-P40 (Sigma)] was added and the mixture was incubated for 15 min at 22° C. to allow pre-binding of the test compounds to the enzyme before the start of the kinase reaction. Then the kinase reaction was started by the addition of 3 μL of a solution of adenosine-tri-phosphate (ATP, 3.3 mM=>final conc. in the 5 μL assay volume is 2 mM) and substrate (0.1 μM=>final conc. in the 5 μL assay volume is 0.06 μM) in assay buffer and the resulting mixture was incubated for a reaction time of 30 min at 22° C. The concentration of MKNK1 was adjusted depending of the activity of the enzyme lot and was chosen appropriate to have the assay in the linear range, typical concentrations were in the range of 0.003 μg/mL. The reaction was stopped by the addition of 5 μL of a solution of TR-FRET detection reagents (5 nM streptavidine-XL665 [Cisbio Bioassays, Codolet, France] and 1 nM anti-ribosomal protein S6 (pSer236)-antibody from Invitrogen [#44921G] and 1 nM LANCE EU-W1024 labeled ProteinG [Perkin-Elmer, product no. AD0071]) in an aqueous EDTA-solution (100 mM EDTA, 0.1% (w/v) bovine serum albumin in 50 mM HEPES pH 7.5).
# The resulting mixture was incubated for 1 h at 22° C. to allow the formation of complex between the phosphorylated biotinylated peptide and the detection reagents. Subsequently the amount of phosphorylated substrate was evaluated by measurement of the resonance energy transfer from the Eu-chelate to the streptavidine-XL. Therefore, the fluorescence emissions at 620 nm and 665 nm after excitation at 350 nm were measured in a TR-FRET reader, e.g. a Rubystar (BMG Labtechnologies, Offenburg, Germany) or a Viewlux (Perkin-Elmer). The ratio of the emissions at 665 nm and at […] was taken as the measure for the amount of phosphorylated substrate. The data were normalised (enzyme reaction without inhibitor=0% inhibition, all other assay components but no enzyme=100% inhibition).
row,pIC50,Compound
1,7.49,"CN[C@H](C)COc1ccc2ncc(-c3cc4c(OC)nccc4o3)n2n1 (stereo in doubt) [Example 3, 1-{[3-(4-Methoxyfuro[3,2-c]pyridin-2-yl)imidazo[1,2-b]pyridazin-6-yl]oxy}-N-methylpropan-2-amine]"
2,6.41,"COc1nccc2oc(-c3cnc4ccc(O[C@@H](CNC5CC5)c5ccc(F)cc5)nn34)cc12 (stereo in doubt) [Example 7, N-[2-(4-Fluorophenyl)-2-{[3-(4-methoxyfuro[3,2-c]pyridin-2-yl)imidazo[1,2-b]-pyridazin-6-yl]oxy}ethyl]cyclopropanamine]"
3,7.96,"COc1nccc2oc(-c3cnc4ccc(OC[C@H]5CNCCO5)nn34)cc12 [Example 1, 3-(4-Methoxyfuro[3,2-c]pyridin-2-yl)-6-[(2R)-morpholin-2-ylmethoxy]imidazo-[1,2-b]pyridazine]"
4,7.51,"COc1nccc2oc(-c3cnc4ccc(OCC5CNC5)nn34)cc12 [Example 2, 6-(Azetidin-3-ylmethoxy)-3-(4-methoxyfuro[3,2-c]pyridin-2-yl)imidazo[1,2-b]-pyridazine]"
5,7.14,"c1cc2oc(-c3cnc4ccc(OC[C@H]5CNCCO5)nn34)cc2cn1 [Example 4, 3-(Furo[3,2-c]pyridin-2-yl)-6-[(2R)-morpholin-2-ylmethoxy]imidazo[1,2-b]-pyridazine]"
6,7.07,"c1cnc2cc(-c3cnc4ccc(OC[C@H]5CNCCO5)nn34)oc2c1 [Example 5, 3-(Furo[3,2-b]pyridin-2-yl)-6-[(2R)-morpholin-2-ylmethoxy]imidazo[1,2-b]-pyridazine]"
7,6.88,"c1cc2oc(-c3cnc4ccc(OCC[C@@H]5CCCN5)nn34)cc2cn1 [Example 6, 3-(Furo[3,2-c]pyridin-2-yl)-6-{2-[(2S)-pyrrolidin-2-yl]ethoxy}imidazo[1,2-b]-pyridazine]"
8,7.32,"COc1nccc2oc(-c3cnc4ccc(OC[C@@H]5CCCCN5)nn34)cc12 [Example 8, 3-(4-Methoxyfuro[3,2-c]pyridin-2-yl)-6-[(2S)-piperidin-2-ylmethoxy]imidazo-[1,2-b]pyridazine]"
